Legend:
[1] = target: Muscarinic acetylcholine receptor M3 (Homo sapiens, UniProt P20309)
[2] = target: T1, Neuropeptide Y receptor type 1 (Homo sapiens, UniProt P25929)
T1 sequence (P25929 whole entry): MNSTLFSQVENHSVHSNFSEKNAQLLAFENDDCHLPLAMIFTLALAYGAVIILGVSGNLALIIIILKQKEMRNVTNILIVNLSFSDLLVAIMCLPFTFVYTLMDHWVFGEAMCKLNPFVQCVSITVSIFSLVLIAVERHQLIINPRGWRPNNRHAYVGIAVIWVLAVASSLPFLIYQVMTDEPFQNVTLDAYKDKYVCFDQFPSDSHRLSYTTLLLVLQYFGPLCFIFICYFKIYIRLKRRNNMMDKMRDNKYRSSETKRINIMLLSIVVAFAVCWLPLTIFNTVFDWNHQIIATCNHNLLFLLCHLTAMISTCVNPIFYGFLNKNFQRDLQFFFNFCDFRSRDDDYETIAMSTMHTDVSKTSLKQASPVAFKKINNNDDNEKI

[3] = target: T2, Alpha-1A adrenergic receptor (Homo sapiens, UniProt P35348); assay type: functional, cell-based
T2 sequence (P35348 whole entry): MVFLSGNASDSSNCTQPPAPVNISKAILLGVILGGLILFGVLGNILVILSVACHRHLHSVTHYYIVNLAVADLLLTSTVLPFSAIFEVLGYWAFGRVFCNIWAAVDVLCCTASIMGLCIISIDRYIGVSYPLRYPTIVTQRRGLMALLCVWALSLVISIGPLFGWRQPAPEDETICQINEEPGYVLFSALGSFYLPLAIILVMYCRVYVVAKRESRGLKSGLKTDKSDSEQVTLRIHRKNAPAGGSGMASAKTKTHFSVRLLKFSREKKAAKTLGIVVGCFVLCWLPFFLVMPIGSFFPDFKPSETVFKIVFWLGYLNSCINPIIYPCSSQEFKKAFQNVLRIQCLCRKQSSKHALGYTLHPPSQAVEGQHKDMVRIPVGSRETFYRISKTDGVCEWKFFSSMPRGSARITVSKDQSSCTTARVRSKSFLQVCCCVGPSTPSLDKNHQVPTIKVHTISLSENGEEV

Glucocorticoid receptor = target: T3, Glucocorticoid receptor (Homo sapiens, UniProt P04150)
T3 sequence (P04150 whole entry): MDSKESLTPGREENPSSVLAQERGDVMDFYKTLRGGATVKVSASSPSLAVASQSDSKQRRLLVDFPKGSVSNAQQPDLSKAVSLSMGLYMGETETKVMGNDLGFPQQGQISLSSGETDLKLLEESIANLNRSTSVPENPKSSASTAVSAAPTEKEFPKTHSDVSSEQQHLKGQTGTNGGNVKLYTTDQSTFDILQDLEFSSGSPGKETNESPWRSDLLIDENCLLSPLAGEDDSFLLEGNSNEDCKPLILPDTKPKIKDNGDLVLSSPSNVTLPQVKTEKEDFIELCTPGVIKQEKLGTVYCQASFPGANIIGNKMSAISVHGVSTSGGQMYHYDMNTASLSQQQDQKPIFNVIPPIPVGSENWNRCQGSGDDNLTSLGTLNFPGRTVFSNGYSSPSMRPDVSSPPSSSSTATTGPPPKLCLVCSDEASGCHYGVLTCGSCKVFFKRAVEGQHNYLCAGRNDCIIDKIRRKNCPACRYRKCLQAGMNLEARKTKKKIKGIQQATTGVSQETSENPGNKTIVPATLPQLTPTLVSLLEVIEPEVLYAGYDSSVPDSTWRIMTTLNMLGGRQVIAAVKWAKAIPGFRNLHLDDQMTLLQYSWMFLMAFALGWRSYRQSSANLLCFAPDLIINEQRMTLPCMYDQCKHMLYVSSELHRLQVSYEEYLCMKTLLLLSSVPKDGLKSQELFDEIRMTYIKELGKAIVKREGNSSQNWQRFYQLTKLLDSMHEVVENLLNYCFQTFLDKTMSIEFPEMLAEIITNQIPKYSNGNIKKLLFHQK

Cannabinoid receptor 1 = Cannabinoid receptor 1 (Homo sapiens, UniProt P21554); assay type: functional, cell-based
[4] = target: 5-hydroxytryptamine receptor 2B (Homo sapiens, UniProt P41595); assay type: functional, cell-based
[5] = target: cGMP-inhibited 3',5'-cyclic phosphodiesterase 3A (Homo sapiens, UniProt Q14432); assay type: functional
Note: assay procedure not described here.

Muscarinic acetylcholine receptor M3, sequence (P20309 whole entry): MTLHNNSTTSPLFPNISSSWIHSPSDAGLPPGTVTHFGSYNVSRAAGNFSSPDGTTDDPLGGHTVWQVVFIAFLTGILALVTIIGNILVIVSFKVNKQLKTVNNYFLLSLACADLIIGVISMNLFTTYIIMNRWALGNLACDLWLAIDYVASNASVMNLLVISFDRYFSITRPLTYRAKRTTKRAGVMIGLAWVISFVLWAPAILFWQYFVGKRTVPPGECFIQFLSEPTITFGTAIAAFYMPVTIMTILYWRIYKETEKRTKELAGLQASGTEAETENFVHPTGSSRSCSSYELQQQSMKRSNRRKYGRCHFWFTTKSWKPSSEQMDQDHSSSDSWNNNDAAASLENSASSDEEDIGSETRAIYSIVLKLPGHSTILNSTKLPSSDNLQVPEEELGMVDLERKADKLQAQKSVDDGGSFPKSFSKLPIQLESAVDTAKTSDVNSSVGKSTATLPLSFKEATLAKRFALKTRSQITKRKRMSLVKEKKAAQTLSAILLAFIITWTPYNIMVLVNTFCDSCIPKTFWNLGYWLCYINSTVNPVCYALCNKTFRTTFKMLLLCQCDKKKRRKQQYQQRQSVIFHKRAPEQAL
Cannabinoid receptor 1, sequence (P21554 whole entry): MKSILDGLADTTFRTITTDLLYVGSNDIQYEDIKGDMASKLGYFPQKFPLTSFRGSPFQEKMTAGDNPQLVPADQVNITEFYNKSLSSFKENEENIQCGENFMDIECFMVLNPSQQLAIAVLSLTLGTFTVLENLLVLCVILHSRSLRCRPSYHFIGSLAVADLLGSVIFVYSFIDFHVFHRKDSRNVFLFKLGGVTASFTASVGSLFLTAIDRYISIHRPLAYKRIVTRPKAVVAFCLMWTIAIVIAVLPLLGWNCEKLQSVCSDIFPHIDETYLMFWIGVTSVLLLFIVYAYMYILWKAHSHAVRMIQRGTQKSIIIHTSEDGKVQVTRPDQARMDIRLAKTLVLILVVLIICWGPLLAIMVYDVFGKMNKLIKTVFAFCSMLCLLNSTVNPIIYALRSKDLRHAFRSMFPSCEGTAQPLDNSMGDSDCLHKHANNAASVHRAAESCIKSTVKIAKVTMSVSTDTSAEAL
cGMP-inhibited 3',5'-cyclic phosphodiesterase 3A, sequence (Q14432 whole entry): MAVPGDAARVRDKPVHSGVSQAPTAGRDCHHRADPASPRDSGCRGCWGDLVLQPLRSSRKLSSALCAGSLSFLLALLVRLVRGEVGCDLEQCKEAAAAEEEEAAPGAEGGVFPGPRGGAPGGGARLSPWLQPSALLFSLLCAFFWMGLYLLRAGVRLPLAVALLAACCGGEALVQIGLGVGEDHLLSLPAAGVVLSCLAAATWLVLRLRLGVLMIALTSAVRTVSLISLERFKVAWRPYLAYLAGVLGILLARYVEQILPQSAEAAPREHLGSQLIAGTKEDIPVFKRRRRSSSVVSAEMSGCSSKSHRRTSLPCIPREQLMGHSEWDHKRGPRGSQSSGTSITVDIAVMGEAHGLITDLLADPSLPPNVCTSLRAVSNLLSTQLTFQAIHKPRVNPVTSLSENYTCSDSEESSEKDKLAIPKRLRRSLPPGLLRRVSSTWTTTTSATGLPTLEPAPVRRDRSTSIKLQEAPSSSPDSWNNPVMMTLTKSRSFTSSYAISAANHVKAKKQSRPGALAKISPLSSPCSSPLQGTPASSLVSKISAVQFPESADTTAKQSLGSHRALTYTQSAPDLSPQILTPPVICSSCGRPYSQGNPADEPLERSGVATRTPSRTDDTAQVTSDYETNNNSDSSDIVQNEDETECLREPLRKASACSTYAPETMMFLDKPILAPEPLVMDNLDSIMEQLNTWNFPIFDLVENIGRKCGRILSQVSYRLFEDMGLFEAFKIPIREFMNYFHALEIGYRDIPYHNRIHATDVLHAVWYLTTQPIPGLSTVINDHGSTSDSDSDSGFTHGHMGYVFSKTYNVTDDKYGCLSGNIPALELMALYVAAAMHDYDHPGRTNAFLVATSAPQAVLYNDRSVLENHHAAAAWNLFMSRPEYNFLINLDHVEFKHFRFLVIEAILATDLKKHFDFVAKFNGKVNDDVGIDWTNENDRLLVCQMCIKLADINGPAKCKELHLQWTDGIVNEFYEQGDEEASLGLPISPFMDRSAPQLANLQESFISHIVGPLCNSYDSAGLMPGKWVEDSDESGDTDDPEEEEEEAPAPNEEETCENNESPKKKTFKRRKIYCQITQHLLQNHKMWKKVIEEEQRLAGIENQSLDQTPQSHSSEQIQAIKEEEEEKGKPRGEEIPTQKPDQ
5-hydroxytryptamine receptor 2B, sequence (P41595 whole entry): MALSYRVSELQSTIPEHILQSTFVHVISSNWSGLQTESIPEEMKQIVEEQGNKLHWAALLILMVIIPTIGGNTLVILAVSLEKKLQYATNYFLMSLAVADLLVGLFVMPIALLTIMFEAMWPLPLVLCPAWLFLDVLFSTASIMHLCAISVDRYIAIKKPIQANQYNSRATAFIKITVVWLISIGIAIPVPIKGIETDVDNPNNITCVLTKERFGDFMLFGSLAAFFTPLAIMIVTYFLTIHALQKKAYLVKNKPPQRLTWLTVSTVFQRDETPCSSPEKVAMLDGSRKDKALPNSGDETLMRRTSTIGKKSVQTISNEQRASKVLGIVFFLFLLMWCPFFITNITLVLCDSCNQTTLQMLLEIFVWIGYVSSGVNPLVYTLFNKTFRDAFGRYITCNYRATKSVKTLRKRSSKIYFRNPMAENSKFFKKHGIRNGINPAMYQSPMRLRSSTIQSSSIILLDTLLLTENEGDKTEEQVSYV

Row | Compound | AC50 [1] [µM] | AC50 [2] [µM] | AC50 [3] [µM] | AC50 (Glucocorticoid receptor) [µM] | AC50 (Cannabinoid receptor 1) [µM] | AC50 [4] [µM] | AC50 [5] [µM]
1 | Cc1ccc(-c2cc(C(F)(F)F)nn2-c2ccc(S(N)(=O)=O)cc2)cc1 [CELECOXIB] |  | > 10 |  | > 30 | > 30 |  | 
2 | O=P1(NCCCl)OCCCN1CCCl (stereo not given) [IFOSFAMIDE] |  | > 30 |  | > 30 |  |  | 
3 | O=C(O[C@H]1C[C@H]2CC[C@@H](C1)[N+]21CCCC1)C(O)(c1ccccc1)c1ccccc1 [TROSPIUM] | 0.0089 | > 30 | > 30 |  |  |  | 
4 | CNC1Cc2ccccc2N(C)c2ccccc21 (stereo not given) [METAPRAMINE] | > 30 |  | 3.4 |  | > 30 |  | 
5 | CNC(=O)c1ccccc1Sc1ccc2c(/C=C/c3ccccn3)n[nH]c2c1 [AXITINIB] | > 30 |  | > 30 |  | > 30 |  | 
6 | Cn1nnc2c(C(N)=O)ncn2c1=O [TEMOZOLOMIDE] | > 30 | > 30 | > 30 |  | > 30 |  | 
7 | CN(C)/N=N/c1[nH]cnc1C(N)=O [DACARBAZINE] |  | > 10 |  | > 10 |  |  | 
8 | CCCCN1C[C@H](O)[C@@H](O)[C@H](O)[C@H]1CO | > 30 | > 30 | > 30 | > 30 |  |  | 
9 | c1ccc([C@H]2CN3CCSC3=N2)cc1 [LEVAMISOLE] |  |  | > 30 |  | > 30 |  | 
10 | COc1ccc(CC(C)(C)NC[C@H](O)c2cc(O)cc3c2OCC(=O)N3)cc1 [OLODATEROL] | > 30 |  | 0.055 |  | > 30 |  | 
11 | CC1(C)NC(=O)N(c2ccc([N+](=O)[O-])c(C(F)(F)F)c2)C1=O [NILUTAMIDE] | > 30 | > 30 |  |  |  | > 30 | > 30
12 | CCOC(=O)[C@H](CCc1ccccc1)N[C@@H](C)C(=O)N1[C@H](C(=O)O)C[C@@H]2CCC[C@@H]21 |  | > 30 | > 30 | > 30 | > 30 |  | 

Now from value to compound, other results behind:

Row | AC50 [1] [µM] | AC50 [2] [µM] | AC50 [3] [µM] | AC50 (Glucocorticoid receptor) [µM] | AC50 (Cannabinoid receptor 1) [µM] | Compound | AC50 [4] [µM] | AC50 [5] [µM]
13 | > 30 | > 30 | > 30 | 2.71 | > 30 | O=C1Nc2ccc(Cl)cc2[C@@](C#CC2CC2)(C(F)(F)F)O1 [EFAVIRENZ] |  | 
14 | > 30 | > 30 | > 30 |  | > 30 | CN1C(C(=O)Nc2ccccn2)=C(O)c2sc(Cl)cc2S1(=O)=O [LORNOXICAM] |  | 
15 |  |  | > 10 |  | > 30 | C1CCC(C(CC2CCCCN2)C2CCCCC2)CC1 (stereo not given) [PERHEXILINE] |  | 
16 |  | > 30 | > 30 |  | > 30 | CCC(C)n1ncn(-c2ccc(N3CCN(c4ccc(OCC5COC(Cn6cncn6)(c6ccc(Cl)cc6Cl)O5)cc4)CC3)cc2)c1=O (stereo not given) [ITRACONAZOLE] |  | 
17 | > 10 | > 30 |  | > 30 | > 30 | Clc1ccc2nsnc2c1NC1=NCCN1 [TIZANIDINE] |  | 
18 |  | > 30 | > 30 |  | > 30 | C[C@]12CCC(=O)C=C1CC[C@@H]1[C@@H]2[C@@H](O)C[C@@]2(C)[C@H]1CC[C@]2(O)C(=O)CO [HYDROCORTISONE] |  | 
19 |  | > 10 |  | 1.4 |  | Clc1ccc(C(c2ccccc2Cl)C(Cl)Cl)cc1 (stereo not given) [MITOTANE] |  | 
20 | > 30 | > 30 | > 30 | > 30 | > 30 | Cc1nc([N+](=O)[O-])cn1-c1ccc([N+](=O)[O-])cc1 [NITREFAZOLE] |  | 

From ChEMBL document CHEMBL5291721, “A preclinical secondary pharmacology resource illuminates target-adverse drug reaction associations of marketed drugs” (Nat Commun, 2023)
